Assays:
Leukemia L1210 = test: Activity against Leukemia L1210, intraperitoneal, increase in life span of mice; type: in vivo, female mice (BDF1 family); details: for ED (maximum ILS) / ED30: Mus musculus, L1210, ip, ip once a day for 5 successive days; for ED (maximum ILS): daily dosage giving maximum increase of life span, read-out: O.D. (optimum dosage); for ED30: daily dosage increasing average survival days by 30%, read-out: ILS30; for Survivors after 60 days / Max. ILS % / Therapeutic ratio TR: ip; for Survivors after 60 days: 6-membered group; for Max. ILS %: 60-day observation, versus control; for Therapeutic ratio TR: O.D./ILS30
In short: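 Female BDF1 mice (20 to 23 g; 6 per group) were implanted intraperitoneally with 1×10^5 L1210 cells, then dosed ip or orally once daily for 5 days starting 24 h later. Survival was followed over 60 days, and ILS% was derived from mean survival days versus untreated controls.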

[1] = Acute toxicity (LD50, Behrens-Karber method); type: in vivo, ICR mice; details: mouse, in vivo, ip, mortality during 30 days
Method: Test compounds, dissolved or suspended in 0.5% aqueous CMC, were each intraperitoneally administered to ICR mice in a dose of 0.1 ml per 10 g body weight. LD50 (mg/kg) value of each test compound was calculated from the mortality of mice during 30 days by the Behrens-Karber method.

COCC(C)N(C(=O)N(CCCl)N=O)C1C(O)C(CO)OC(OC2CCCCC2)C1O [Compound 87, 3-(1-methyl-2-methoxyethyl)-3-(cyclohexyl α-D-glucopyranose-3-yl)-1-(2-chloroethyl)-1-nitrosourea]
ED (maximum ILS) (Leukemia L1210): 200 mg/kg | ED30 (Leukemia L1210): 4.24 mg/kg | Survivors after 60 days (Leukemia L1210): 6/6 | Max. ILS % (Leukemia L1210): > 700% | Therapeutic ratio TR (Leukemia L1210): 47.2 | LD50 at 720 h [1]: 720 mg/kg

O=NN(CCCl)C(=O)N(CCC1CCCC1)C1C(O)C(CO)OC(OC2CCCCC2)C1O [Compound 88, 3-(2-cyclopentylethyl)-3-(cyclohexyl α-D-glucopyranose-3-yl)-1-(2-chloroethyl)-1-nitrosourea]
ED (maximum ILS) (Leukemia L1210): 200 mg/kg | ED30 (Leukemia L1210): 6.62 mg/kg | Survivors after 60 days (Leukemia L1210): 3/6 | Max. ILS % (Leukemia L1210): > 360% | Therapeutic ratio TR (Leukemia L1210): 30.2 | LD50 at 720 h [1]: 710 mg/kg

CCCN(C(=O)N(CCCl)N=O)C1C(CO)OC(OCC(C)C)C(O)C1O [Compound 90, 3-n-propyl-3-(isobutyl α-D-glucopyranose-4-yl)-1-(2-chloroethyl)-1-nitrosourea]
ED (maximum ILS) (Leukemia L1210): 100 mg/kg | ED30 (Leukemia L1210): 3.07 mg/kg | Survivors after 60 days (Leukemia L1210): 3/6 | Max. ILS % (Leukemia L1210): > 350% | Therapeutic ratio TR (Leukemia L1210): 32.6 | LD50 at 720 h [1]: 325 mg/kg

C=C(C)CN(C(=O)N(CCCl)N=O)C1C(CO)OC(OC(C)CC)C(O)C1O [Compound 91, 3-(2-methyl-2-propenyl)-3-(sec-butyl α-D-glucopyranose-4-yl)-1-(2-chloroethyl)-1-nitrosourea]
ED (maximum ILS) (Leukemia L1210): 150 mg/kg | ED30 (Leukemia L1210): 4.65 mg/kg | Survivors after 60 days (Leukemia L1210): 3/6 | Max. ILS % (Leukemia L1210): > 340% | Therapeutic ratio TR (Leukemia L1210): 32.3 | LD50 at 720 h [1]: 450 mg/kg

CC(C)COC1OC(CO)C(N(C(=O)N(CCCl)N=O)C(C)C)C(O)C1O [Compound 92, 3-isopropyl-3-(isobutyl α-D-glucopyranose-4-yl)-1-(2-chloroethyl)-1-nitrosourea]
ED (maximum ILS) (Leukemia L1210): 100 mg/kg | ED30 (Leukemia L1210): 3.14 mg/kg | Survivors after 60 days (Leukemia L1210): 3/6 | Max. ILS % (Leukemia L1210): > 360% | Therapeutic ratio TR (Leukemia L1210): 31.8 | LD50 at 720 h [1]: 335 mg/kg

CC(C)COC1OC(CO)C(N(CC2CC2)C(=O)N(CCCl)N=O)C(O)C1O [Compound 95, 3-cyclopropylmethyl-3-(isobutyl α-D-glucopyranose-4-yl)-1-(2-chloroethyl)-1-nitrosourea]
ED (maximum ILS) (Leukemia L1210): 120 mg/kg | ED30 (Leukemia L1210): 3.82 mg/kg | Survivors after 60 days (Leukemia L1210): 3/6 | Max. ILS % (Leukemia L1210): > 360% | Therapeutic ratio TR (Leukemia L1210): 31.4 | LD50 at 720 h [1]: 400 mg/kg

CCC(C)OC1OC(CO)C(N(C(=O)N(CCCl)N=O)C(C)COC)C(O)C1O [Compound 96, 3-(1-methyl-2-methoxyethyl)-3-(sec-butyl α-D-glucopyranose-4-yl)-1-(2-chloroethyl)-1-nitrosourea]
ED (maximum ILS) (Leukemia L1210): 150 mg/kg | ED30 (Leukemia L1210): 4.46 mg/kg | Survivors after 60 days (Leukemia L1210): 3/6 | Max. ILS % (Leukemia L1210): > 355% | Therapeutic ratio TR (Leukemia L1210): 33.6 | LD50 at 720 h [1]: 450 mg/kg

C=C(C)CN(C(=O)N(CCCl)N=O)C1C(CO)OC(OC2CCCCC2)C(O)C1O [Compound 97, 3-(2-methyl-2-propenyl)-3-(cyclohexyl α-D-glucopyranose-4-yl)-1-(2-chloroethyl)-1-nitrosourea]
ED (maximum ILS) (Leukemia L1210): 120 mg/kg | ED30 (Leukemia L1210): 3.72 mg/kg | Survivors after 60 days (Leukemia L1210): 3/6 | Max. ILS % (Leukemia L1210): > 360% | Therapeutic ratio TR (Leukemia L1210): 32.3 | LD50 at 720 h [1]: 390 mg/kg

CCCN(C[C@H]1O[C@H](OC2CCCCC2)[C@H](O)[C@@H](O)[C@H]1O)C(=O)N(CCCl)N=O [Compound 98, 3-n-propyl-3-(cyclohexyl α-D-galactopyranose-6-yl)-1-(2-chloroethyl)-1-nitrosourea]
ED (maximum ILS) (Leukemia L1210): 200 mg/kg | ED30 (Leukemia L1210): 6.45 mg/kg | Survivors after 60 days (Leukemia L1210): 3/6 | Max. ILS % (Leukemia L1210): > 350% | Therapeutic ratio TR (Leukemia L1210): 31.0 | LD50 at 720 h [1]: 600 mg/kg

CCCCN(C[C@H]1O[C@H](OC2CCCCC2)[C@H](O)[C@@H](O)[C@H]1O)C(=O)N(CCCl)N=O [Compound 99, 3-n-butyl-3-(cyclohexyl α-D-galactopyranose-6-yl)-1-(2-chloroethyl)-1-nitrosourea]
ED (maximum ILS) (Leukemia L1210): 200 mg/kg | ED30 (Leukemia L1210): 6.22 mg/kg | Survivors after 60 days (Leukemia L1210): 3/6 | Max. ILS % (Leukemia L1210): > 330% | Therapeutic ratio TR (Leukemia L1210): 32.2 | LD50 at 720 h [1]: 630 mg/kg

CCCCCCN(C[C@H]1O[C@H](OC2CCCCC2)[C@H](O)[C@@H](O)[C@H]1O)C(=O)N(CCCl)N=O [Compound 100, 3-n-hexyl-3-(cyclohexyl α-D-galactopyranose-6-yl)-1-(2-chloroethyl)-1-nitrosourea]
ED (maximum ILS) (Leukemia L1210): 200 mg/kg | ED30 (Leukemia L1210): 6.41 mg/kg | Survivors after 60 days (Leukemia L1210): 3/6 | Max. ILS % (Leukemia L1210): > 330% | Therapeutic ratio TR (Leukemia L1210): 31.2 | LD50 at 720 h [1]: 580 mg/kg

CCOCCN(C[C@H]1O[C@H](OC2CCCCC2)[C@H](O)[C@@H](O)[C@H]1O)C(=O)N(CCCl)N=O [Compound 102, 3-(2-ethoxyethyl)-3-(cyclohexyl α-D-galactopyranose-6-yl)-1-(2-chloroethyl)-1-nitrosourea]
ED (maximum ILS) (Leukemia L1210): 200 mg/kg | ED30 (Leukemia L1210): 3.81 mg/kg | Survivors after 60 days (Leukemia L1210): 5/6 | Max. ILS % (Leukemia L1210): > 625% | Therapeutic ratio TR (Leukemia L1210): 52.5 | LD50 at 720 h [1]: 680 mg/kg

COC(C)CN(C[C@H]1O[C@H](OC2CCCCC2)[C@H](O)[C@@H](O)[C@H]1O)C(=O)N(CCCl)N=O (stereo partly drawn) [Compound 103, 3-(2-methoxy-n-propyl)-3-(cyclohexyl α-D-galactopyranose-6-yl)-1-(2-chloroethyl)-1-nitrosourea]
ED (maximum ILS) (Leukemia L1210): 200 mg/kg | ED30 (Leukemia L1210): 3.63 mg/kg | Survivors after 60 days (Leukemia L1210): 5/6 | Max. ILS % (Leukemia L1210): > 625% | Therapeutic ratio TR (Leukemia L1210): 55.1 | LD50 at 720 h [1]: 685 mg/kg

COc1ccc(CN(C[C@H]2O[C@H](OC3CCCCC3)[C@H](O)[C@@H](O)[C@H]2O)C(=O)N(CCCl)N=O)cc1 [Compound 104, 3-(p-methoxybenzyl)-3-(cyclohexyl α-D-galactopyranose-6-yl)-1-(2-chloroethyl)-1-nitrosourea]
ED (maximum ILS) (Leukemia L1210): 200 mg/kg | ED30 (Leukemia L1210): 6.61 mg/kg | Survivors after 60 days (Leukemia L1210): 3/6 | Max. ILS % (Leukemia L1210): > 325% | Therapeutic ratio TR (Leukemia L1210): 30.3 | LD50 at 720 h [1]: 630 mg/kg

CCCCO[C@H]1O[C@H](CN(CCC)C(=O)N(CCCl)N=O)[C@H](O)[C@H](O)[C@H]1O [Compound 106, 3-n-propyl-3-(n-butyl α-D-galactopyranose-6-yl)-1-(2-chloroethyl)-1-nitrosourea]
ED (maximum ILS) (Leukemia L1210): 160 mg/kg | ED30 (Leukemia L1210): 3.74 mg/kg | Survivors after 60 days (Leukemia L1210): 3/6 | Max. ILS % (Leukemia L1210): > 340% | Therapeutic ratio TR (Leukemia L1210): 42.8 | LD50 at 720 h [1]: 430 mg/kg

CC(C)CO[C@H]1O[C@H](CN(CC(C)C)C(=O)N(CCCl)N=O)[C@H](O)[C@H](O)[C@H]1O [Compound 107, 3-isobutyl-3-(isobutyl α-D-galactopyranose-6-yl)-1-(2-chloroethyl)-1-nitrosourea]
ED (maximum ILS) (Leukemia L1210): 200 mg/kg | ED30 (Leukemia L1210): 5.87 mg/kg | Survivors after 60 days (Leukemia L1210): 3/6 | Max. ILS % (Leukemia L1210): > 360% | Therapeutic ratio TR (Leukemia L1210): 34.1 | LD50 at 720 h [1]: 650 mg/kg

Cc1ccc(CN(C[C@H]2O[C@H](OCC(C)C)[C@H](O)[C@@H](O)[C@H]2O)C(=O)N(CCCl)N=O)cc1 [Compound 111, 3-(p-methylbenzyl)-3-(isobutyl α-D-galactopyranose-6-yl)-1-(2-chloroethyl)-1-nitrosourea]
ED (maximum ILS) (Leukemia L1210): 200 mg/kg | ED30 (Leukemia L1210): 7.04 mg/kg | Survivors after 60 days (Leukemia L1210): 3/6 | Max. ILS % (Leukemia L1210): > 345% | Therapeutic ratio TR (Leukemia L1210): 28.4 | LD50 at 720 h [1]: 600 mg/kg

CC(C)CO[C@H]1O[C@H](CN(Cc2cccs2)C(=O)N(CCCl)N=O)[C@H](O)[C@H](O)[C@H]1O [Compound 112, 3-(thiophene-2-yl-methyl)-3-(isobutyl α-D-galactopyranose-6-yl)-1-(2-chloroethyl)-1-nitrosourea]
ED (maximum ILS) (Leukemia L1210): 180 mg/kg | ED30 (Leukemia L1210): 4.17 mg/kg | Survivors after 60 days (Leukemia L1210): 3/6 | Max. ILS % (Leukemia L1210): > 350% | Therapeutic ratio TR (Leukemia L1210): 43.2 | LD50 at 720 h [1]: 480 mg/kg

COC(C)CO[C@H]1O[C@H](CN(CC2CC2)C(=O)N(CCCl)N=O)[C@H](O)[C@H](O)[C@H]1O (stereo partly drawn) [Compound 116, 3-cyclopropylmethyl-3-(2-methoxy-n-propyl α-D-galactopyranose-6-yl)-1-(2-chloroethyl)-1-nitrosourea]
ED (maximum ILS) (Leukemia L1210): 150 mg/kg | ED30 (Leukemia L1210): 2.51 mg/kg | Survivors after 60 days (Leukemia L1210): 6/6 | Max. ILS % (Leukemia L1210): > 700% | Therapeutic ratio TR (Leukemia L1210): 59.8 | LD50 at 720 h [1]: 450 mg/kg

CCCCO[C@H]1O[C@H](CO)[C@H](O)[C@H](O)[C@H]1N(C)C(=O)N(CCCl)N=O [Compound 118, 3-methyl-3-(n-butyl α-D-galactopyranose-2-yl)-1-(2-chloroethyl)-1-nitrosourea]
ED (maximum ILS) (Leukemia L1210): 130 mg/kg | ED30 (Leukemia L1210): 4.45 mg/kg | Survivors after 60 days (Leukemia L1210): 3/6 | Max. ILS % (Leukemia L1210): > 350% | Therapeutic ratio TR (Leukemia L1210): 29.2 | LD50 at 720 h [1]: 400 mg/kg

CCCCO[C@H]1O[C@H](CO)[C@H](O)[C@H](O)[C@H]1N(CCC)C(=O)N(CCCl)N=O [Compound 119, 3-n-propyl-3-(n-butyl α-D-galactopyranose-2-yl)-1-(2-chloroethyl)-1-nitrosourea]
ED (maximum ILS) (Leukemia L1210): 200 mg/kg | ED30 (Leukemia L1210): 5.95 mg/kg | Survivors after 60 days (Leukemia L1210): 3/6 | Max. ILS % (Leukemia L1210): > 360% | Therapeutic ratio TR (Leukemia L1210): 33.6 | LD50 at 720 h [1]: 600 mg/kg

COc1ccc(CN(C(=O)N(CCCl)N=O)[C@H]2[C@@H](OCC(C)C)O[C@H](CO)[C@H](O)[C@@H]2O)cc1 [Compound 120, 3-(p-methoxybenzyl)-3-(isobutyl α-D-galactopyranose-2-yl)-1-(2-chloroethyl)-1-nitrosourea]
ED (maximum ILS) (Leukemia L1210): 170 mg/kg | ED30 (Leukemia L1210): 6.59 mg/kg | Survivors after 60 days (Leukemia L1210): 3/6 | Max. ILS % (Leukemia L1210): > 340% | Therapeutic ratio TR (Leukemia L1210): 25.8 | LD50 at 720 h [1]: 550 mg/kg

Source: patent publication US4593090A, “Novel nitrosourea compounds, method for preparing same, and pharmaceutical composition containing same” (Gogo Kimura, priority 1981, dated 1986)
